Source: patent US20200270232A1, “INHIBITORS OF INTEGRATED STRESS RESPONSE PATHWAY” (Praxis Biotech LLC, priority 2019, published 2020)

Assays:
ATF4 = ATF4 expression inhibition assay (ATF4 luciferase reporter); type: cell-based; settings: Homo sapiens, HEK-293T; HEK293T cells carrying the ATF4 luciferase reporter, 100 nM thapsigargin (Tg), 3 hours; read-out: ATF4 inhbition IC50
Method: The ATF4 reporter was prepared by fusing the human full length 5′UTR of ATF4 (NCBI Accession No. BC022088.2) upstream of the firefly luciferase coding sequence lacking the initiator methionine. The fused sequence was cloned into pLenti-EF1a-C-Myc-DDK-IRES-Puro cloning vector (Origen # PS 100085) using standard methods. Virus production was carried out by using Lenti-X™ Packaging Single Shots Protocol (Clonetech #631276). Viral particles were used to transduce HEK293T cells (ATCC # CRL-3216, ATCC Manassas, Va.), which were subsequently selected with puromycin to generate stable cell line. Cells were maintained at 37° C. and 5% CO2 in DMEM-F12 (Hyclone # SH30023.02) supplemented with 10% heat-inactivated fetal bovine serum (Gibco #16000-044), 2 mM L-glutamine (Gibco #25030-081), 100 U/ml penicillin, and 100 μg/ml streptomycin (Gibco #15140-122).
HEK293T cells carrying the ATF4 luciferase reporter were plated on 96-well plates (Nunc) at 10,000 cells per well. Cells were treated two days after seeding with 100 nM thapsigargin (Tg) (Sigma-Aldrich # T9033) in the presence of different concentrations of selected compounds ranging from 1 nM to 10 μM. Cells without treatment or cells treated with Tg alone were used as controls. Assay plates containing cells were incubated for 3 hours at 37° C.
Luciferase reactions were performed using Luciferase Assay System (Promega # E1501) as specified by the manufacturer. Luminescence was read with an integration time of 1 s and a gain of 110 using a Cytation-5 multi-mode microplate reader (BioTek). Relative luminescence units were normalized to Tg treatment (0% inhibition) and untreated cells (100% inhibition) and the percentage of ATF4 inhibition was calculated.
Accordingly, inhibition of ATF4 expression as a result of the test compound indicates suppression of the ISR pathway.

[1] = tested on: Chinese hamster ovary (CHO) cells; assay: Protein translation assay (puromycin labelling, western blot); type: cell-based; settings: 2 hours, media alone = 100%; for activity at 1 µM: Cricetulus griseus, unstressed CHO cells (without Tg), 1 μM test compound, read-out: % Protein synthesis relative to untreated (1 μM test compound); for % Recovery of protein synthesis (1 μM test compound): stressed CHO cells, 300 nM Tg, Tg alone = 0%
Method: Chinese hamster ovary (CHO) cells were maintained at 37° C. and 5% C02 in Dulbecco's Modified Eagle's Media (DMEM) supplemented with 10% fetal bovine serum, 2 mM L-glutamine, 100 U/ml penicillin, and 100 μg/ml streptomycin. After reaching 80% of confluence, cells were detached and seeded on 6 well plates in complete media, allowed to recover overnight and treated for 2 hours with 1 μM of the test compound (to assess protein synthesis levels in unstressed condition), or for 2 hours with 300 nM Tg in the presence of 1 μM of the test compound (to assess the recovery of protein synthesis in a stressed condition). Cells with Tg alone were used as controls.
After the 2 hours treatments, media were replaced by adding 10 μg/ml puromycin (Sigma Aldrich # P8833) in complete media for 30 min. Media were removed and cells were lysed with SDS-PAGE lysis buffer. Lysates were transferred to 1.5 ml tubes and sonicated for 3 min and total protein amount were quantified using BCA Protein Assay Kit (Pierce). Equal amount of protein (30 μg) was loaded on SDS-PAGE gels. Proteins were transferred onto 0.2 μm PVDF membranes (BioRad) and probed with primary antibodies diluted in Tris-buffered saline supplemented with 0.1% Tween 20 (Merck # S6996184 505) and 3% bovine serum albumin (Rockland # BSA-50).
Puromycin (12D10) (Merck # MABE343) and β-actin (Sigma Aldrich # A5441) antibodies were used as primary antibody. A HRP-conjugated secondary antibody (Rockland) was employed to detect immune-reactive bands using enhanced chemiluminescence (ECL Western Blotting Substrate, Pierce). Quantification of protein bands was done by densitometry using ImageJ software.
Percent increase of protein synthesis in unstressed cells (without Tg treatment) in the presence of media alone or certain test compounds is shown in Table 3. The percentage levels were normalized to the media alone condition, which correspond to 100% protein synthesis.
Percent recovery of protein synthesis in stressed cells (with Tg treatment) due to the test compounds at 1 μM is also shown in Table 3. The levels were normalized to the media alone and Tg alone conditions, which correspond to 100% and 0% respectively.

SMILES | IC50 (ATF4) [nM] | activity at 1 µM [1] [%] | % Recovery of protein synthesis (1 μM test compound) [1] [%]
O=C(N[C@H]1CC[C@H](NCC(O)COc2ccc(Cl)c(F)c2)C1)c1cc2cc(Cl)ccc2o1 (stereo partly drawn) [Compound 18, 5-chloro-N-((1S,3S)-3-((3-(4-chloro-3-fluorophenoxy)-2-hydroxypropyl)amino)cyclopentyl)benzofuran-2-carboxamide] | 178 | 158 | –
O=C(NC1CCC(NC[C@H](O)COc2ccc(Cl)c(F)c2)C1)c1cc2cc(Cl)ccc2o1 (stereo partly drawn) [Compound 83, 5-chloro-N-(3-(((S)-3-(4-chloro-3-fluorophenoxy)-2-hydroxypropyl)amino)cyclopentyl)benzofuran-2-carboxamide] | > 1000 | 129 | 175.2
O=C(COc1ccc(Cl)c(F)c1)N[C@H]1CC[C@H](NC(=O)c2cc3cc(Cl)ccc3o2)C1 [Compound 14, 5-chloro-N-((1S,3S)-3-(2-(4-chloro-3-fluorophenoxy)acetamido)cyclopentyl)benzofuran-2-carboxamide] | 217 | 65.9 | –
O=C(NCC1CCN(C[C@@H](O)COc2ccc(Cl)c(F)c2)C1)c1ccc2cc(Cl)ccc2n1 (stereo partly drawn) [Compound 80, 6-chloro-N-((1-((R)-3-(4-chloro-3-fluorophenoxy)-2-hydroxypropyl)pyrrolidin-3-yl)methyl)quinoline-2-carboxamide] | > 100 | 153 | 23.9
O=C(NCC1CCC(NCC(O)COc2ccc(Cl)c(F)c2)C1)c1cc2cc(Cl)ccc2o1 (stereo not shown) [Compound 33, 5-chloro-N-((3-((3-(4-chloro-3-fluorophenoxy)-2-hydroxypropyl)amino)cyclopentyl)methyl)benzofuran-2-carboxamide] | > 1000 | 147 | 101.1
O=C(COc1ccc(Cl)c(F)c1)N[C@@H]1CC[C@H](NC(=O)c2ccc3cc(Cl)ccc3n2)C1 [Compound 19, 6-chloro-N-((1S,3R)-3-(2-(4-chloro-3-fluorophenoxy)acetamido)cyclopentyl)quinoline-2-carboxamide] | > 100 | 76.1 | –
O=C(NCC1CCN(C[C@H](O)COc2ccc(Cl)c(F)c2)C1)c1ccc2cc(Cl)ccc2n1 (stereo partly drawn) [Compound 81, 6-chloro-N-((1-((S)-3-(4-chloro-3-fluorophenoxy)-2-hydroxypropyl)pyrrolidin-3-yl)methyl)quinoline-2-carboxamide] | 1000 | 134 | 38.7
O=C(NC1CCN(CC(O)COc2ccc(Cl)c(F)c2)C1)c1ccc2cc(Cl)ccc2n1 (stereo not shown) [Compound 53, 6-chloro-N-(1-(3-(4-chloro-3-fluorophenoxy)-2-hydroxypropyl)pyrrolidin-3-yl)quinoline-2-carboxamide] | > 1000 | 102 | 37.93
O=C(COc1ccc(Cl)c(F)c1)NCC1CCC(NC(=O)c2ccc3cc(Cl)ccc3n2)C1 (stereo not shown) [Compound 85, 6-chloro-N-(3-((2-(4-chloro-3-fluorophenoxy)acetamido)methyl)cyclopentyl)quinoline-2-carboxamide] | < 1000 | 88 | –
O=C(COc1ccc(Cl)c(F)c1)NC1CCN(CC(O)COc2ccc(Cl)c(F)c2)C1 (stereo not shown) [Compound 99, 2-(4-chloro-3-fluorophenoxy)-N-(1-(3-(4-chloro-3-fluorophenoxy)-2-hydroxypropyl)pyrrolidin-3-yl)acetamide] | > 100 | 67.7 | 0.00
O=C(N[C@H]1CC[C@@H](NCC(O)COc2ccc(Cl)c(F)c2)C1)c1ccc2cc(Cl)ccc2n1 (stereo partly drawn) [Compound 3, 6-chloro-N-((1S,3R)-3-((3-(4-chloro-3-fluorophenoxy)-2-hydroxypropyl)amino)cyclopentyl)quinoline-2-carboxamide] | 249 | 176 | 286
O=C(NC1CCC(NC[C@@H](O)COc2ccc(Cl)c(F)c2)C1)c1cc2cc(Cl)ccc2o1 (stereo partly drawn) [Compound 82, 5-chloro-N-(3-(((R)-3-(4-chloro-3-fluorophenoxy)-2-hydroxypropyl)amino)cyclopentyl)benzofuran-2-carboxamide] | > 1000 | 160 | 176.4
O=C(COc1ccc(Cl)c(F)c1)NCC1CCN(CC(O)COc2ccc(Cl)c(F)c2)C1 (stereo not shown) [Compound 7, 2-(4-chloro-3-fluorophenoxy)-N-((1-(3-(4-chloro-3-fluorophenoxy)-2-hydroxypropyl)pyrrolidin-3-yl)methyl)acetamide] | > 100 | 122 | –
O=C(COc1ccc(Cl)c(F)c1)N[C@@H]1CC[C@H](NC(=O)COc2ccc(Cl)c(F)c2)C1 [Compound 15, N,N′-((1R,3S)-cyclopentane-1,3-diyl)bis(2-(4-chloro-3-fluorophenoxy)acetamide)] | > 100 | 110 | –
O=C(COc1ccc(Cl)c(F)c1)NCC1CCN(C(=O)COc2ccc(Cl)c(F)c2)C1 (stereo not shown) [Compound 4, 2-(4-chloro-3-fluorophenoxy)-N-((1-(2-(4-chloro-3-fluorophenoxy)acetyl)pyrrolidin-3-yl)methyl)acetamide] | > 100 | 76.1 | –
O=C(N[C@@H]1CC[C@@H](NC[C@@H](O)COc2ccc(Cl)c(F)c2)C1)c1cc2cc(Cl)ccc2o1 [Compound 95, 5-chloro-N-((1R,3R)-3-(((R)-3-(4-chloro-3-fluorophenoxy)-2-hydroxypropyl)amino)cyclopentyl)benzofuran-2-carboxamide] | < 1000 | 186 | 170.5
O=C(COc1ccc(Cl)c(F)c1)NC1CCC(CNC(=O)c2ccc3cc(Cl)ccc3n2)C1 (stereo not shown) [Compound 87, 6-chloro-N-((3-(2-(4-chloro-3-fluorophenoxy)acetamido)cyclopentyl)methyl)quinoline-2-carboxamide] | < 1000 | 83.9 | –
O=C(NC1CCN(CC(O)COc2ccc(Cl)c(F)c2)C1)c1cc2cc(Cl)ccc2o1 (stereo not shown) [Compound 98, 5-chloro-N-(1-(3-(4-chloro-3-fluorophenoxy)-2-hydroxypropyl)pyrrolidin-3-yl)benzofuran-2-carboxamide] | > 100 | 167 | 142.63
O=C(COc1ccc(Cl)c(F)c1)N[C@H]1CC[C@H](NCC(O)COc2ccc(Cl)c(F)c2)C1 (stereo partly drawn) [Compound 20, 2-(4-chloro-3-fluorophenoxy)-N-((1S,3S)-3-((3-(4-chloro-3-fluorophenoxy)-2-hydroxypropyl)amino)cyclopentyl)acetamide] | > 100 | 123 | 52.5
O=C(COc1ccc(Cl)c(F)c1)N[C@H]1CC[C@@H](NCC(O)COc2ccc(Cl)c(F)c2)C1 (stereo partly drawn) [Compound 2, 2-(4-chloro-3-fluorophenoxy)-N-((1S,3R)-3-((3-(4-chloro-3-fluorophenoxy)-2-hydroxypropyl)amino)cyclopentyl)acetamide] | > 1000 | 84.7 | 28.2
